pEC50, pIC50: −log10 of the molar value.
Experiments:
[1] = test system: KMS11 (human myeloma cell line); assay: Cell proliferation assay (CellTiter-Glo) in KMS11 cells; format: cell-based; settings: KMS-11, 72 h, Table 5, 3 days, read-out: KMS11-luc EC50
Outline: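 KMS11 cells at 2000 per well in IMDM/10% FBS were exposed to compound for 3 days. Viability was read by CellTiter-Glo luminescence.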

Pim1 kinase = Pim1 kinase (Homo sapiens, UniProt P11309); assay: Pim1 AlphaScreen assay (high ATP)
Procedure: (§1) The activity of Pim 1, Pim 2, & Pim 3 is measured using a homogeneous bead based system quantifying the amount of phosphorylated peptide substrate resulting from kinase-catalyzed phosphoryl transfer to a peptide substrate. Compounds to be tested are dissolved in 100% DMSO and directly distributed to a white 384-well plate at 0.25 μl per well. […] This is followed by the addition of 5 μl/well of Pim 1, Pim 2 or Pim 3 kinase in assay buffer (concentrations described below). Final assay concentrations (described below) are in 2.5% DMSO. The reactions are performed for ˜2 hours, then stopped by the addition of 10 μl of 0.75 μg/ml anti-phospho Ser/Thr antibody (Cell Signaling), 10 μg/ml Protein A AlphaScreen beads (Perkin Elmer), and 10 μg/ml streptavidin coated AlphaScreen beads in stop/detection buffer (50 mM EDTA, 95 mM Tris, pH=7.5, 0.01% Tween-20). The stopped reactions are incubated overnight in the dark. The phosphorylated peptide is detected via an oxygen anion initiated chemiluminescence/fluorescence cascade using the Envision plate reader (Perkin Elmer).

Pim2 kinase = Pim2 kinase (Homo sapiens, UniProt Q9P1W9); assay: Pim2 AlphaScreen assay (high ATP)
Procedure: as §1

Pim3 kinase = Pim3 kinase (Homo sapiens, UniProt Q86V86); assay: Pim3 AlphaScreen assay (high ATP)
Procedure: as §1

Sequence of Pim1 kinase (P11309 whole entry): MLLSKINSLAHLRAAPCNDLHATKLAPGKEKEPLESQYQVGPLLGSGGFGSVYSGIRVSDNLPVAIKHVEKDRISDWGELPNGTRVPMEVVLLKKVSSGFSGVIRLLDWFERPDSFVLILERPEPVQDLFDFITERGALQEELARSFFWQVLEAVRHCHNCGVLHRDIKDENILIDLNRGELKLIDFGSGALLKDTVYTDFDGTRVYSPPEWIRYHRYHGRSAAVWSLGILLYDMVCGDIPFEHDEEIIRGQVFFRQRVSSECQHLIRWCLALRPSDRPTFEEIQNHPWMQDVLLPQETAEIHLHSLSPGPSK
Sequence of Pim2 kinase (Q9P1W9 whole entry): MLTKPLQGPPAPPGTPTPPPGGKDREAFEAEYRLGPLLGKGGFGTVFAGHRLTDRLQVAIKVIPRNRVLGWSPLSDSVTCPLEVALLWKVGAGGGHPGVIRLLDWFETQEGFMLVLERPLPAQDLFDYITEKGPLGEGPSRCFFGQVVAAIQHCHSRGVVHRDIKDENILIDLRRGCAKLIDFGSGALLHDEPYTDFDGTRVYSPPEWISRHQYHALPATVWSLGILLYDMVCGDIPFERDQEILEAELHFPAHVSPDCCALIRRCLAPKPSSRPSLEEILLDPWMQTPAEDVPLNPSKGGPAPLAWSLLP

| Structure (SMILES) | pEC50 [1] | pIC50 (Pim1 kinase) | pIC50 (Pim2 kinase) | pIC50 (Pim3 kinase) |
| --- | --- | --- | --- | --- |
| C[C@H]1C[C@@H](c2ccncc2NC(=O)c2ccc(F)c(-c3c(F)cc(OC4CCOCC4)cc3F)n2)C[C@@H](O)[C@]1(C)O [Example 90, 6-(2,6-difluoro-4-(tetrahydro-2H-pyran-4-yloxy)phenyl)-N-(4-((1R,3R,4R,5S)-3,4-dihydroxy-4,5-dimethylcyclohexyl)pyridin-3-yl)-5-fluoropicolinamide] | 6.25 | 9.33 | 6.67 | 7.19 |
| C[C@@H]1C[C@H](c2ccncc2NC(=O)c2ccc(F)c(-c3c(F)cc(OC4CCOCC4)cc3F)n2)C[C@H](O)[C@@]1(C)O [Example 96, 6-(2,6-difluoro-4-(tetrahydro-2H-pyran-4-yloxy)phenyl)-N-(4-((1S,3S,4S,5R)-3,4-dihydroxy-4,5-dimethylcyclohexyl)pyridin-3-yl)-5-fluoropicolinamide] | < 5.00 | 7.73 | 5.06 | 5.58 |
| C[C@H]1C[C@@H](c2ccncc2NC(=O)c2nc(-c3c(F)cc(C(C)(C)O)cc3F)c(F)cc2N)C[C@@H](O)[C@]1(C)O [Example 97, 3-amino-6-(2,6-difluoro-4-(2-hydroxypropan-2-yl)phenyl)-N-(4-((1R,3R,4R,5S)-3,4-dihydroxy-4,5-dimethylcyclohexyl)pyridin-3-yl)-5-fluoropicolinamide] | 6.39 | 9.62 | 7.54 | 8.08 |
| COCCOc1cc(F)c(-c2nc(C(=O)Nc3cnccc3[C@H]3C[C@@H](O)[C@](C)(O)[C@@H](C)C3)c(N)cc2F)c(F)c1 [Example 98, 3-amino-6-(2,6-difluoro-4-(2-methoxyethoxy)phenyl)-N-(4-((1R,3R,4R,5S)-3,4-dihydroxy-4,5-dimethylcyclohexyl)pyridin-3-yl)-5-fluoropicolinamide] | 6.37 | 9.08 | 6.88 | 7.40 |
| CC(C)Oc1cc(F)c(-c2nc(C(=O)Nc3cnccc3[C@H]3C[C@@H](O)[C@](C)(O)[C@@H](C)C3)c(N)cc2F)c(F)c1 [Example 99, 3-amino-6-(2,6-difluoro-4-isopropoxyphenyl)-N-(4-((1R,3R,4R,5S)-3,4-dihydroxy-4,5-dimethylcyclohexyl)pyridin-3-yl)-5-fluoropicolinamide] | 5.94 | 9.02 | 6.97 | 7.34 |
| C[C@H]1C[C@@H](c2ccncc2NC(=O)c2ccc(F)c(-c3c(F)cc(C4(O)CCC4)cc3F)n2)C[C@@H](O)[C@]1(C)O [Example 105, 6-(2,6-difluoro-4-(1-hydroxycyclobutyl)phenyl)-N-(4-((1R,3R,4R,5S)-3,4-dihydroxy-4,5-dimethylcyclohexyl)pyridin-3-yl)-5-fluoropicolinamide] | 5.53 | 9.26 | 6.92 | 7.11 |
| COCCOc1cc(F)c(-c2nc(C(=O)Nc3cnccc3[C@H]3C[C@@H](O)[C@](C)(O)[C@@H](C)C3)ccc2F)c(F)c1 [Example 107, 6-(2,6-difluoro-4-(2-methoxyethoxy)phenyl)-N-(4-((1R,3R,4R,5S)-3,4-dihydroxy-4,5-dimethylcyclohexyl)pyridin-3-yl)-5-fluoropicolinamide] | 5.50 | 9.05 | 6.60 | 7.13 |
| C[C@H]1C[C@@H](c2ccncc2NC(=O)c2ccc(F)c(-c3c(F)cc(C4CCOCC4)cc3F)n2)C[C@@H](O)[C@]1(C)O [Example 108, 6-(2,6-difluoro-4-(tetrahydro-2H-pyran-4-yl)phenyl)-N-(4-((1R,3R,4R,5S)-3,4-dihydroxy-4,5-dimethylcyclohexyl)pyridin-3-yl)-5-fluoropicolinamide] | 6.69 | 9.70 | 7.18 | 7.51 |
| C[C@H]1C[C@@H](c2ccncc2NC(=O)c2ccc(F)c(-c3c(F)cc(N4CCOCC4)cc3F)n2)C[C@@H](O)[C@]1(C)O [Example 109, 6-(2,6-difluoro-4-morpholinophenyl)-N-(4-((1R,3R,4R,5S)-3,4-dihydroxy-4,5-dimethylcyclohexyl)pyridin-3-yl)-5-fluoropicolinamide] | 6.11 | 9.64 | 6.86 | 7.38 |

More lines, now with the values ahead:

| pEC50 [1] | pIC50 (Pim1 kinase) | pIC50 (Pim2 kinase) | pIC50 (Pim3 kinase) | Structure (SMILES) |
| --- | --- | --- | --- | --- |
| 6.99 | 10.15 | 8.62 | 8.79 | CC(C)OCc1cc(F)c(-c2nc(C(=O)Nc3cnccc3[C@H]3C[C@@H](N)[C@](C)(O)[C@@H](C)C3)ccc2F)c(F)c1 [Example 91, N-(4-((1R,3R,4R,5S)-3-amino-4-hydroxy-4,5-dimethylcyclohexyl)pyridin-3-yl)-6-(2,6-difluoro-4-(isopropoxymethyl)phenyl)-5-fluoropicolinamide] |
| 7.04 | 10.05 | 8.41 | 8.66 | C[C@H]1C[C@@H](c2ccncc2NC(=O)c2ccc(F)c(-c3c(F)cc(COC4CCOCC4)cc3F)n2)C[C@@H](N)[C@]1(C)O [Example 92, N-(4-((1R,3R,4R,5S)-3-amino-4-hydroxy-4,5-dimethylcyclohexyl)pyridin-3-yl)-6-(2,6-difluoro-4-((tetrahydro-2H-pyran-4-yloxy)methyl)phenyl)-5-fluoropicolinamide] |
| 5.85 | 10.05 | 8.07 | 8.91 | C[C@H]1C[C@@H](c2ccncc2NC(=O)c2ccc(F)c(-c3c(F)cc(OCC(=O)N(C)C)cc3F)n2)C[C@@H](N)[C@]1(C)O [Example 93, N-(4-((1R,3R,4R,5S)-3-amino-4-hydroxy-4,5-dimethylcyclohexyl)pyridin-3-yl)-6-(4-(2-(dimethylamino)-2-oxoethoxy)-2,6-difluorophenyl)-5-fluoropicolinamide] |
| 5.49 | 9.52 | 6.94 | 7.32 | Cc1noc(C)c1-c1cc(F)c(-c2nc(C(=O)Nc3cnccc3[C@H]3C[C@@H](N)[C@](C)(O)[C@@H](C)C3)ccc2F)c(F)c1 [Example 94, N-(4-((1R,3R,4R,5S)-3-amino-4-hydroxy-4,5-dimethylcyclohexyl)pyridin-3-yl)-6-(4-(3,5-dimethylisoxazol-4-yl)-2,6-difluorophenyl)-5-fluoropicolinamide] |
| 6.76 | 10.40 | 8.41 | 8.63 | C[C@H]1C[C@@H](c2ccncc2NC(=O)c2ccc(F)c(-c3c(F)cc(C4(O)CCC4)cc3F)n2)C[C@@H](N)[C@]1(C)O [Example 95, N-(4-((1R,3R,4R,5S)-3-amino-4-hydroxy-4,5-dimethylcyclohexyl)pyridin-3-yl)-6-(2,6-difluoro-4-(1-hydroxycyclobutyl)phenyl)-5-fluoropicolinamide] |
| 6.47 | 10.40 | 8.67 | 9.16 | COCCCOc1cc(F)c(-c2nc(C(=O)Nc3cnccc3[C@H]3C[C@@H](N)[C@](C)(O)[C@@H](C)C3)ccc2F)c(F)c1 [Example 100, N-(4-((1R,3R,4R,5S)-3-amino-4-hydroxy-4,5-dimethylcyclohexyl)pyridin-3-yl)-6-(2,6-difluoro-4-(3-methoxypropoxy)phenyl)-5-fluoropicolinamide] |
| 6.48 | 10.40 | 8.66 | 9.07 | C[C@H]1C[C@@H](c2ccncc2NC(=O)c2ccc(F)c(-c3c(F)cc(OCC4CCOCC4)cc3F)n2)C[C@@H](N)[C@]1(C)O [Example 101, N-(4-((1R,3R,4R,5S)-3-amino-4-hydroxy-4,5-dimethylcyclohexyl)pyridin-3-yl)-6-(2,6-difluoro-4-((tetrahydro-2H-pyran-4-yl)methoxy)phenyl)-5-fluoropicolinamide] |
| 6.76 | 10.70 | 8.82 | 9.21 | C[C@H]1C[C@@H](c2ccncc2NC(=O)c2ccc(F)c(-c3c(F)cc4c(c3F)OCC4)n2)C[C@@H](N)[C@]1(C)O [Example 102, N-(4-((1R,3R,4R,5S)-3-amino-4-hydroxy-4,5-dimethylcyclohexyl)pyridin-3-yl)-6-(5,7-difluoro-2,3-dihydrobenzofuran-6-yl)-5-fluoropicolinamide] |
| < 5.00 | 8.84 | 7.85 | 7.23 | C[C@H]1C[C@@H](c2ccncc2NC(=O)c2ccc(F)c(-c3c(F)cc(C(C)(C)C(=O)O)cc3F)n2)C[C@@H](N)[C@]1(C)O [Example 103, 2-(4-(6-(4-((1R,3R,4R,5S)-3-amino-4-hydroxy-4,5-dimethylcyclohexyl)pyridin-3-ylcarbamoyl)-3-fluoropyridin-2-yl)-3,5-difluorophenyl)-2-methylpropanoic acid] |
| 6.08 | 10.15 | 8.12 | 8.36 | C[C@H]1C[C@@H](c2ccncc2NC(=O)c2ccc(F)c(-c3c(F)cc(C(F)F)cc3F)n2)C[C@@H](N)[C@]1(C)O [Example 104, N-(4-((1R,3R,4R,5S)-3-amino-4-hydroxy-4,5-dimethylcyclohexyl)pyridin-3-yl)-6-(4-(difluoromethyl)-2,6-difluorophenyl)-5-fluoropicolinamide] |
| 5.81 | 9.38 | 6.74 | 7.16 | CC(C)Oc1cc(F)c(-c2nc(C(=O)Nc3cnccc3[C@H]3C[C@@H](O)[C@](C)(O)[C@@H](C)C3)ccc2F)c(F)c1 [Example 106, 6-(2,6-difluoro-4-isopropoxyphenyl)-N-(4-((1R,3R,4R,5S)-3,4-dihydroxy-4,5-dimethylcyclohexyl)pyridin-3-yl)-5-fluoropicolinamide] |
| 6.27 | 9.08 | 6.76 | 7.41 | C[C@H]1C[C@@H](c2ccncc2NC(=O)c2ccc(F)c(-c3c(F)cc(OCCO)cc3F)n2)C[C@@H](O)[C@]1(C)O [Example 111, 6-(2,6-difluoro-4-(2-hydroxyethoxy)phenyl)-N-(4-((1R,3R,4R,5S)-3,4-dihydroxy-4,5-dimethylcyclohexyl)pyridin-3-yl)-5-fluoropicolinamide] |
